Patent US20060069132A1, “Azolecarboxamide herbicides” (priority 2004, published 2006)

Experiments:
[1] = tested on: morningglory; test: Test A pre-/postemergence herbicide test; format: in vivo, Ipomoea spp.
How it was run: (§1)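 Seeds sown in sandy loam received a preemergence directed soil spray of compound in non-phytotoxic solvent with surfactant; postemergence plants (2–10 cm, one- to two-leaf stage) were sprayed to runoff at the same time. After ~10 days in greenhouse, injury was rated visually versus untreated controls (0 = no effect, 100 = complete control).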

[2] = tested on: barnyardgrass; test: Test B flooded paddy test; format: in vivo, Echinochloa crus-galli; conditions: 1000 g ai/ha, visual rating, scale 0 to 100 (0 no effect, 100 complete control), 13 to 15 days
How it was run: (§2)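 Greenhouse test; postemergence application to plants at 1–4 leaves (2–18 cm); paddy species at 2 leaves; evaluated visually vs controls at 13–15 days; scale 0–100 (100 = complete control).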

[3] = tested on: velvetleaf; test: Test A pre-/postemergence herbicide test; format: in vivo, Abutilon theophrasti
How it was run: as §1

[4] = tested on: giant foxtail; test: Test B pre-/postemergence herbicide test; format: in vivo, Setaria faberi; conditions: for Foxtail, Giant plant response rating: postemergence, visual rating, scale 0 (no effect) to 100 (complete control)
How it was run: (§3)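 Formulation: non-phytotoxic solvent mix with surfactant. Timing: preemergence on seed and postemergence on 2–18 cm plants, applied concurrently. Readout after 13–15 d greenhouse: visual 0–100 control rating against controls.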

[5] = tested on: large crabgrass; test: Test B pre-/postemergence herbicide test; format: in vivo, Digitaria sanguinalis; conditions: for Crabgrass, Large plant response rating: postemergence, visual rating, scale 0 (no effect) to 100 (complete control)
How it was run: as §3

[6] = tested on: wheat; test: Test B postemergence herbicide test; format: in vivo, Triticum aestivum; set-up: key to Wheat plant response rating: 0 = no effect, 100 = complete control; conditions: postemergence, visual rating, scale 0 (no effect) to 100 (complete control)
How it was run: (§4)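 Read-out: visual comparison with controls, scored 0 to 100, where 100 means complete control and 0 no effect. Formulated chemicals were applied postemergence to plants 2–18 cm tall (1- to 4-leaf), or to flooded-paddy plants at the 2-leaf stage, then held 13 to 15 days under glass.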

[7] = tested on: barnyardgrass; test: Test B pre-/postemergence herbicide test; format: in vivo, Echinochloa crus-galli; conditions: for Barnyardgrass plant response rating: postemergence, visual rating, scale 0 (no effect) to 100 (complete control)
How it was run: (§5)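 Greenhouse pot assay with simultaneous preemergence (treated seed) and postemergence (2–18 cm seedlings) applications of surfactant-containing, non-phytotoxic solvent formulations. Response scored visually 13–15 days later on a 0–100 scale, 100 meaning complete control.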

[8] = tested on: lambsquarters; test: Test B pre-/postemergence herbicide test; format: in vivo, Chenopodium album; conditions: for Lambsquarters plant response rating: postemergence, visual rating, scale 0 (no effect) to 100 (complete control)
How it was run: as §3

[9] = tested on: rice; test: Test B pre-/postemergence herbicide test; format: in vivo, Oryza sativa; conditions: preemergence
How it was run: as §3

[10] = tested on: ducksalad; test: Test B flooded paddy test; format: in vivo, Heteranthera limosa; conditions: 1000 g ai/ha, visual rating, scale 0 to 100 (0 no effect, 100 complete control), 13 to 15 days
How it was run: as §2

[11] = tested on: pigweed; test: Test B pre-/postemergence herbicide test; format: in vivo, Amaranthus retroflexus; conditions: for Pigweed plant response rating: postemergence, visual rating, scale 0 (no effect) to 100 (complete control)
How it was run: as §3

[12] = tested on: morningglory; test: Test B pre-/postemergence herbicide test; format: in vivo, Ipomoea coccinea; conditions: for Morningglory plant response rating: postemergence, visual rating, scale 0 (no effect) to 100 (complete control)
How it was run: as §5

[13] = tested on: blackgrass; test: Test B postemergence herbicide test; format: in vivo, Alopecurus myosuroides; conditions: postemergence, visual rating, scale 0 (no effect) to 100 (complete control)
How it was run: as §2

[14] = tested on: large crabgrass; test: Test A pre-/postemergence herbicide test; format: in vivo, Digitaria sanguinalis
How it was run: as §1

[15] = tested on: velvetleaf; test: Test B pre-/postemergence herbicide test; format: in vivo, Abutilon theophrasti; conditions: for Velvetleaf plant response rating: postemergence, visual rating, scale 0 (no effect) to 100 (complete control)
How it was run: as §3

[16] = tested on: small flower umbrella sedge; test: Test B flooded paddy test; format: in vivo, Cyperus difformis; conditions: 1000 g ai/ha, visual rating, scale 0 to 100 (0 no effect, 100 complete control), 13 to 15 days
How it was run: as §2

[17] = tested on: Surinam grass; test: Test B pre-/postemergence herbicide test; format: in vivo, Urochloa decumbens; conditions: for Surinam Grass plant response rating: postemergence, visual rating, scale 0 (no effect) to 100 (complete control)
How it was run: as §3

[18] = tested on: rice; test: Test B flooded paddy test; format: in vivo, Oryza sativa; conditions: 1000 g ai/ha, visual rating, scale 0 to 100 (0 no effect, 100 complete control), 13 to 15 days
How it was run: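 Scale 0–100: zero equals no visible effect, 100 complete control, judged by eye relative to controls. Timing: 13 to 15 days in greenhouse post-treatment. Growth stage at spraying: two leaves (paddy) or one to four leaves, 2–18 cm (postemergence).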

[19] = tested on: cocklebur; test: Test B pre-/postemergence herbicide test; format: in vivo, Xanthium strumarium; conditions: for Cocklebur plant response rating: postemergence, visual rating, scale 0 (no effect) to 100 (complete control)
How it was run: as §5

[20] = tested on: redroot pigweed; test: Test A pre-/postemergence herbicide test; format: in vivo, Amaranthus retroflexus
How it was run: as §1

[21] = tested on: barnyardgrass; test: Test A pre-/postemergence herbicide test; format: in vivo, Echinochloa crus-galli
How it was run: as §1

[22] = tested on: corn; test: Test B pre-/postemergence herbicide test; format: in vivo, Zea mays; conditions: for Corn plant response rating: postemergence, visual rating, scale 0 (no effect) to 100 (complete control)
How it was run: as §3

[23] = tested on: wild oat; test: Test B postemergence herbicide test; format: in vivo, Avena fatua; conditions: postemergence, visual rating, scale 0 (no effect) to 100 (complete control)
How it was run: as §4

[24] = tested on: giant foxtail; test: Test A pre-/postemergence herbicide test; format: in vivo, Setaria faberi
How it was run: as §1

[25] = Postemergence, 500 g ai/ha, 0 to 100 scale, 0 no effect, 100 complete control
[26] = Postemergence, 2000 g ai/ha, 0 to 100 scale, 0 no effect, 100 complete control
[27] = Preemergence, 2000 g ai/ha, visual rating, 0 to 100 scale (0 no effect, 100 complete control)
[28] = preemergence, 500 g ai/ha, visual injury, 0 to 100 scale (0 no effect, 100 complete control)
[29] = 125 g ai/ha, 0 = no effect, 100 = complete control, preemergence
[30] = 500 g ai/ha, visual rating 0-100, 0 no effect, 100 complete control, preemergence

Cc1nn(C(C)(C)C)cc1C(=O)Nc1cccc(OC(C)C)c1 [Compound 189]
80: Morningglory plant response rating ([12]; 125 g ai/ha)
30: Morningglory plant response rating [1, 27] | Crabgrass, Large plant response rating (0 to 100 scale) [5, 29] | Plant response rating, Barnyardgrass [7, 30] | Plant response rating, Lambsquarters [8, 30] | Pigweed plant response rating ([11]; 125 g ai/ha) | Pigweed plant response rating [20, 25]
75: Crabgrass, Large plant response rating [14, 27]
60: Barnyardgrass plant response rating [2] | Plant response rating, Crabgrass, Large [5, 30] | Pigweed plant response rating ([11]; 500 g ai/ha)
90: Pigweed plant response rating (0 to 100 scale) [11, 29] | Morningglory plant response rating ([12]; 500 g ai/ha)
40: Rice plant response rating [18] | Pigweed plant response rating [20, 27]
20: Crabgrass, Large plant response rating ([5]; 500 g ai/ha) | Plant response rating, Morningglory [12, 30] | Plant response rating, Velvetleaf [15, 30] | Velvetleaf plant response rating ([15]; 125 g ai/ha) | Velvetleaf plant response rating ([15]; 500 g ai/ha) | Plant response rating, Surinam Grass [17, 30] | Surinam Grass plant response rating ([17]; 500 g ai/ha) | Foxtail, Giant plant response rating [24, 27]
15: Morningglory plant response rating [1, 28]
0: Foxtail, Giant plant response rating (0 to 100 scale) [4, 29] | Foxtail, Giant plant response rating ([4]; 125 g ai/ha) | Wheat plant response rating ([6]; 125 g ai/ha) | Wheat plant response rating ([6]; 500 g ai/ha) | Barnyardgrass plant response rating (0 to 100 scale) [7, 29] | Barnyardgrass plant response rating ([7]; 125 g ai/ha) | Lambsquarters plant response rating (0 to 100 scale) [8, 29] | Rice plant response rating (0 to 100 scale) ([9]; 125 g ai/ha, 0 = no effect, 100 = complete control) | Blackgrass plant response rating ([13]; 125 g ai/ha) | Blackgrass plant response rating ([13]; 500 g ai/ha) | Velvetleaf plant response rating (0 to 100 scale) [15, 29] | Surinam Grass plant response rating (0 to 100 scale) [17, 29] | Cocklebur plant response rating (0 to 100 scale) [19, 29] | Plant response rating, Cocklebur [19, 30] | Cocklebur plant response rating ([19]; 125 g ai/ha) | Barnyardgrass plant response rating [21, 25] | Corn plant response rating (0 to 100 scale) [22, 29] | Plant response rating, Corn [22, 30] | Foxtail, Giant plant response rating [24, 25] | Plant response rating, Foxtail, Giant [24, 26]
10: Morningglory plant response rating [1, 25] | Plant response rating, Morningglory [1, 26] | Velvetleaf plant response rating [3, 28] | Plant response rating, Foxtail, Giant [4, 30] | Foxtail, Giant plant response rating ([4]; 500 g ai/ha) | Crabgrass, Large plant response rating ([5]; 125 g ai/ha) | Barnyardgrass plant response rating ([7]; 500 g ai/ha) | Crabgrass, Large plant response rating [14, 25] | Plant response rating, Crabgrass, Large [14, 26] | Surinam Grass plant response rating ([17]; 125 g ai/ha) | Cocklebur plant response rating ([19]; 500 g ai/ha) | Plant response rating, Barnyardgrass [21, 26] | Corn plant response rating ([22]; 125 g ai/ha) | Corn plant response rating ([22]; 500 g ai/ha) | Oat, Wild plant response rating ([23]; 125 g ai/ha) | Oat, Wild plant response rating ([23]; 500 g ai/ha)
50: Lambsquarters plant response rating ([8]; 125 g ai/ha) | Lambsquarters plant response rating ([8]; 500 g ai/ha) | Plant response rating, Rice ([9]; 500 g ai/ha, visual rating 0-100, 0 no effect, 100 complete control)
55: Crabgrass, Large plant response rating [14, 28]
45: Plant response rating, Pigweed [20, 26]
65: Barnyardgrass plant response rating [21, 27]
70: Ducksalad plant response rating [10] | Sedge, Umbrella plant response rating [16]
100: Plant response rating, Pigweed [11, 30]
35: Barnyardgrass plant response rating [21, 28]
25: Velvetleaf plant response rating [3, 27] | Pigweed plant response rating [20, 28]
5: Velvetleaf plant response rating [3, 25] | Plant response rating, Velvetleaf [3, 26] | Foxtail, Giant plant response rating [24, 28]
